From US20090136514A1, “Tetracyclines for Treating Ocular Diseases and Disorders” (priority 2005, published 2009)

Experiments:
[1] = test system: VEGF-mediated retinal vascular damage; assay: VEGF-induced retinal vascular leakage in rabbits, fundus photography and fluorescein angiography; assay type: in vivo, Dutch Belted rabbits; design: Leakage, mean score / Hemorrhage/Microaneurism, mean score / Edema, mean score: scale not given here; conditions: for Edema, mean score / Hemorrhage/Microaneurism, mean score / Leakage, mean score / Edema, Difference (Doxy-Vehicle) / (Kenalog-Vehicle) / Hemorrhage/Microaneurism, Difference (Doxy-Vehicle) / (Kenalog-Vehicle) / Leakage, Difference (Doxy-Vehicle) / (Kenalog-Vehicle) / Edema, Difference (Kenalog-Doxy) / Hemorrhage/Microaneurism, Difference (Kenalog-Doxy) / Leakage, Difference (Kenalog-Doxy): 48 hours post-dosing; for Edema, mean score / Hemorrhage/Microaneurism, mean score / Leakage, mean score: 50 μl intravitreal before VEGF165; for Edema, Difference (Doxy-Vehicle) / (Kenalog-Vehicle) / Hemorrhage/Microaneurism, Difference (Doxy-Vehicle) / (Kenalog-Vehicle) / Leakage, Difference (Doxy-Vehicle) / (Kenalog-Vehicle): difference of mean scores to vehicle; for Edema, Difference (Kenalog-Doxy) / Hemorrhage/Microaneurism, Difference (Kenalog-Doxy) / Leakage, Difference (Kenalog-Doxy): difference of mean scores to Doxy
Experimental: Retinal vascular leakage was induced in rabbits by intravitreal injection of VEGF according to the procedures set forth in Edelman et al., Experimental Eye Research 80:249-258 (2005). The protective effect of doxycycline on VEGF-mediated retinal vascular damage was assessed. A total of 12 Dutch Belted rabbits (Covance) were anesthetized with isoflurane inhalation and topical 0.5% proparacaine hydrochloride and each eye studied (24 eyes total). Four animals received a 50 μl intravitreal injection of 0.025% bovine serum albumin (BSA) in sterile phosphate-buffered saline (PBS) (Dow Pharmaceutical Sciences) (vehicle, eight eyes total). Doxycycline was formulated from anhydrous doxycycline (Dow Pharmaceutical Sciences) and reconstituted as a saturated solution of doxycycline in 0.025% BSA in PBS assayed to be at a final doxycycline concentration of approximately 0.067 weight percent. Four animals received 50 μl of the doxycycline formulation in each eye (eight eyes total). Four animals received 50 μl of a 40 mg/mL solution of triamcinolone acetonide (Kenalog®, Bristol Myers-Squibb) in 0.025% BSA in PBS (positive control, eight eyes total). Each injection was followed by a 50 μl intravitreal injection of a 10 μg/mL solution of recombinant human VEGF165 (Vascular Endothelial Growth Factor 165 amino acid residue variant, R&D Systems) in 0.025% BSA in PBS. A 30-gauge ⅝-inch needle was used for the injections. VEGF was purchased from R&D Systems (Minneapolis, Minn.).
Prior to injections, eyes were prepared for injection with 1% tropicamide (2 drops), followed ten minutes later by phenylephrine hydrochloride 2.5% (2 drops). An ophthalmic Betadine solution was then used to moisten the eyes. […]. After five minutes, the Betadine was washed out of the eyes with sterile saline and proparacaine hydrochloride was delivered to each eye.
Animals were then anesthetized with an intravenous injection of a ketamine/xylazine cocktail (77 mg/mL ketamine, 23 mg/mL xylazine) at 0.1 mL/kg.
Vascular leakage, hemorrhage, and edema were assessed using fundus photography and fluorescein angiography (see Table 1). Rabbits were anesthetized with subcutaneous 100 mg/mL ketamine at 35 mg/kg and 100 mg/mL xylazine at 7 mg/kg, eyes were dilated with topical 1% tropicamide, and angiograms were obtained with a Topeon TRC-501X retinal camera coupled to a personal computer with IMAGEnet 2000 software (Topcon Medical Systems Inc., Paramus, N.J.). Intravenous sodium fluorescein injection (12 mg/kg) was performed 48 hours after intravitreal injection of VEGF. Late-phase angiography was performed 4-6 min after intravenous sodium fluorescein injection, […]

diabetic retinopathy [2] = assay: Oral doxycycline in patients suffering from diabetic retinopathy; assay type: in vivo, Humans; conditions: 50 mg orally twice a day for eight weeks
Experimental: Ten patients suffering from diabetic retinopathy are treated with oral doxycycline 50 mg orally twice a day for eight weeks. The patients are monitored for improvement of macular edema and vascular leakage by fluorescein angiography and scanning ocular fluorophotometry. Decreased vascular leakage in response to doxycycline administration is observed, which leads to a decrease in edema and improved visual acuity.

diabetic retinopathy [3] = assay: Topical doxycycline in patients suffering from diabetic retinopathy; assay type: in vivo, Humans; conditions: between 0.025% and 0.1% daily for one month
Experimental: Ten patients suffering from diabetic retinopathy are treated with topical doxycycline. Two patients each are administered doxycycline at a concentration selected to be between 0.025% and 0.1% daily for one month. The patients are monitored for improvement of macular edema and vascular leakage by fluorescein angiography and scanning ocular fluorophotometry. Decreased vascular leakage in response to doxycycline administration is observed, which leads to a decrease in edema and improved visual acuity in most or all of the patients treated.

pre-IL-1β = pre-IL-1β cleavage by ELISA in human choroidal cultures; assay type: cell-based; conditions: 0.001% to 5.0% doxycycline
[4] = most or all of the patients treated

| SMILES | Edema, mean score ([1]; Combined Eyes) | Hemorrhage/Microaneurism, mean score ([1]; Combined Eyes) | Leakage, mean score ([1]; Combined Eyes) | Edema, Difference (Doxy-Vehicle) / (Kenalog-Vehicle) ([1]; Combined Eyes) | Hemorrhage/Microaneurism, Difference (Doxy-Vehicle) / (Kenalog-Vehicle) ([1]; Combined Eyes) | Leakage, Difference (Doxy-Vehicle) / (Kenalog-Vehicle) ([1]; Combined Eyes) | Edema, mean score ([1]; Left Eye) | Hemorrhage/Microaneurism, mean score ([1]; Left Eye) | Leakage, mean score ([1]; Left Eye) | Edema, Difference (Doxy-Vehicle) / (Kenalog-Vehicle) ([1]; Left Eye) | Hemorrhage/Microaneurism, Difference (Doxy-Vehicle) / (Kenalog-Vehicle) ([1]; Left Eye) | Leakage, Difference (Doxy-Vehicle) / (Kenalog-Vehicle) ([1]; Left Eye) | Edema, mean score ([1]; Right Eye) | Hemorrhage/Microaneurism, mean score ([1]; Right Eye) | Leakage, mean score ([1]; Right Eye) | Edema, Difference (Doxy-Vehicle) / (Kenalog-Vehicle) ([1]; Right Eye) | Hemorrhage/Microaneurism, Difference (Doxy-Vehicle) / (Kenalog-Vehicle) ([1]; Right Eye) | Leakage, Difference (Doxy-Vehicle) / (Kenalog-Vehicle) ([1]; Right Eye) | Edema ([1]; combined eyes) | Hemorrhage/microaneurism ([1]; combined eyes) | also measured |
| --- | --- | --- | --- | --- | --- | --- | --- | --- | --- | --- | --- | --- | --- | --- | --- | --- | --- | --- | --- | --- | --- |
| C[C@H]1c2cccc(O)c2C(O)=C2C(=O)[C@]3(O)C(O)=C(C(N)=O)C(=O)[C@@H](N(C)C)[C@@H]3[C@@H](O)[C@@H]21 [Doxy, doxycycline] | 2.00 | 1.63 | 2.06 | −0.69 | −0.94 | −0.75 | 3.25 | 2.25 | 3.13 | 0.50 | 0.00 | 0.38 | 1.75 | 2 | 1.75 | −0.25 | −0.25 | −0.50 | 2.0 units | 1.63 units | VEGF-mediated retinal vascular damage ([1]; as compared to the rabbits that received vehicle): reduced; Leakage ([1]; combined eyes): 2.06 units; Edema ([1]; left eye): 3.25 units; Hemorrhage/microaneurism ([1]; left eye): 2.25 units; Leakage ([1]; left eye): 3.13 units; Edema ([1]; right eye): 1.75 units; Hemorrhage/microaneurism ([1]; right eye): 2.0 units; Leakage ([1]; right eye): 1.75 units; Edema (diabetic retinopathy [2]): decrease; visual acuity (diabetic retinopathy [2]): improved; vascular leakage (diabetic retinopathy [2]; fluorescein angiography and scanning ocular fluorophotometry): Decreased; vascular leakage (diabetic retinopathy [3]): Decreased; Edema (diabetic retinopathy [3]; [4]): decrease; visual acuity (diabetic retinopathy [3]; [4]): improved; pre-IL-1β cleavage (pre-IL-1β): correlate directly with increasing doxycycline concentrations |
| CC1(C)O[C@@H]2C[C@H]3[C@@H]4CCC5=CC(=O)C=C[C@]5(C)[C@@]4(F)[C@@H](O)C[C@]3(C)[C@]2(C(=O)CO)O1 [Kenalog, triamcinolone acetonide] | 1.13 | 1.00 | 0.25 | −1.56 | −1.56 | −2.56 | 1.25 | 1.13 | 0.50 | −1.50 | −1.13 | −2.25 | 1.13 | 0.75 | 0.25 | −0.88 | −1.50 | −2.00 | 1.13 units | 1.00 units | Edema, Difference (Kenalog-Doxy) ([1]; Combined Eyes): −0.88; Hemorrhage/Microaneurism, Difference (Kenalog-Doxy) ([1]; Combined Eyes): −0.63; Leakage, Difference (Kenalog-Doxy) ([1]; Combined Eyes): −1.81; Edema, Difference (Kenalog-Doxy) ([1]; Left Eye): −2.00; Hemorrhage/Microaneurism, Difference (Kenalog-Doxy) ([1]; Left Eye): −1.13; Leakage, Difference (Kenalog-Doxy) ([1]; Left Eye): −2.63; Edema, Difference (Kenalog-Doxy) ([1]; Right Eye): −0.63; Hemorrhage/Microaneurism, Difference (Kenalog-Doxy) ([1]; Right Eye): −1.25; Leakage, Difference (Kenalog-Doxy) ([1]; Right Eye): −1.50; Leakage ([1]; combined eyes): 0.25 units; Edema ([1]; left eye): 1.25 units; Hemorrhage/microaneurism ([1]; left eye): 1.13 units; Leakage ([1]; left eye): 0.50 units; Edema ([1]; right eye): 1.13 units; Hemorrhage/microaneurism ([1]; right eye): 0.75 units; Leakage ([1]; right eye): 0.25 units |
